Where a SMILES comes first, the peptide text is derived from it. [ ]: non-standard residue; d: D form. dLac(3-vinyl) = C=CC[C@@H](O)C(=O)O; dHica = CC(C)C[C@@H](O)C(=O)O; NMeV = CN[C@H](C(=O)O)C(C)C; NMeA = CN[C@@H](C)C(=O)O; βAla = NCCC(=O)O
How the values were obtained:
osteoclasts [1] = assay: Effect on the morphology and survival of osteoclasts; type: cell-based, mouse
osteoclasts [2] = assay: Actin ring assay; type: cell-based, mouse
Protocol: In order to observe the formation and shape of actin rings, which function to support the cytoskeleton structure of osteoclasts, an actin ring assay was performed. After removing culture medium, osteoclasts cultured in the presence or absence of destruxin E were fixed with formalin for 10 mins, washed once with a solution containing Tween 20, and treated with 300 U rhodamine phalloidin (Sigma, USA) dissolved in methanol in a dark room.

osteoclasts [3] = assay: Pit formation assay (bone resorption by osteoclasts on bone fragments); type: cell-based, mouse; set-up: Inhibitory Activity versus pit formation: unit not given here
Protocol: Since most osteoclasts growing on bone surfaces have the ability to absorb bone, leaving pits, whether the osteoclasts prepared in Example 1 have bone resorption ability or was not determined by analyzing the number and volume of pits.
Bone fragments were prepared in a thickness of 1 mm, put in methanol, disinfected under UV light on a clean bench, and then transferred to wells of a 96-well plate, after which 100 μl α-MEM medium (10% FCS) was added. […] After incubation for 1 day, bone fragments and osteoclasts growing on them were observed micoscopically and then stored at 4° C.

[4] = tested on: ^45Ca-labelled fetal radius and ulna, organ culture; assay: Inhibition of ^45Ca release in mouse organ culture (PTH-induced calcium release); type: cell-based, ddY mice
Protocol: 15 to 16 days pregnant ddY mice were injected subtaneously with a solution of ^45Ca-labelled calcium chloride to label their bone. After one day, mice were anesthetized with ether, and disinfected in 70% ethanol. Fetuses were obtained from, and transferred to a sterile dish. Under a stereo microscope, after cutting forelegs and peeling off skin thereof, attached muscle was removed from radius and ulna, and cartilage portions existing at the both ends of the two bones were then obtained. During the preparation, the bones were kept moist. Before culturing, a stainless steel membrane was put into a 24-well plate containing 0.5 mL BGJb medium (Gibco, USA), and the obtained bone was then placed onto the membrane. After incubation for 24 hours, bone was transferred to destruxin E-containing medium and further incubated for 72 hours. Herein, parathyroid hormone (PTH) inducing release of calcium was used, and the inhibitory effect of destruxin E on the calcium release by PTH was analyzed. The amounts of ^45Ca remaining in bone and released to medium were measured using 5% TCA, and bone-resorbing activity was calculated as follows.
Bone-resorbing activity=released amount of ^45Ca to medium/(released amount of ^45Ca to medium+amount of ^45Ca remaining in bone)×100

| Compound | MIC: Minimum Inhibitory Concentration at which survival of all osteoclasts is inhibited (osteoclasts [1]) [µM] | Inhibitory Activity versus actin ring (%) (osteoclasts [2]; 0.1 μM destruxin B) | Inhibitory Activity versus actin ring (%) (osteoclasts [2]; 0.5 μM destruxin B) | Inhibitory Activity versus actin ring (%) (osteoclasts [2]; 1 μM destruxin B) | Inhibitory Activity versus actin ring (%) (osteoclasts [2]; 5 μM destruxin B) | IC50 (osteoclasts [2]; read-out: 50% inhibition (IC50) of actin ring formation) [nM] | Inhibitory Activity versus pit formation (osteoclasts [3]; 0.1 μM destruxin B) | Inhibitory Activity versus pit formation (osteoclasts [3]; 0.5 μM destruxin B) | Inhibitory Activity versus pit formation (osteoclasts [3]; 1 μM destruxin B) | Inhibitory Activity versus pit formation (osteoclasts [3]; 5 μM destruxin B) | IC50 (osteoclasts [3]; read-out: 50% inhibition (IC50) of pit formation) [nM] | Inhibitory effect on ^45Ca release, destruxin E compared with eel calcitonin [4] |
| --- | --- | --- | --- | --- | --- | --- | --- | --- | --- | --- | --- | --- |
| CC[C@H](C)[C@@H]1NC(=O)[C@@H]2CCCN2C(=O)[C@@H](CC(C)C)OC(=O)CCNC(=O)[C@H](C)N(C)C(=O)[C@H](C(C)C)N(C)C1=O [Destruxin B] (cyclo([dHica]PI[NMeV][NMeA][βAla])) | 10 | 12 | 41 | 92 | 100 | 600 | 25 | 71 | 94 | 100 | 200 |  |
| C=CC[C@H]1OC(=O)CCNC(=O)[C@H](C)N(C)C(=O)[C@H](C(C)C)N(C)C(=O)[C@H]([C@@H](C)CC)NC(=O)[C@@H]2CCCN2C1=O [Destruxin A] (cyclo([dLac(3-vinyl)]PI[NMeV][NMeA][βAla])) | 20 |  |  |  |  |  |  |  |  |  |  |  |
| eel calcitonin |  |  |  |  |  |  |  |  |  |  |  | the inhibitory effect of destruxin E is higher than that of eel calcitonin |

— US20040102365A1, “Pharmaceutical composition for prevention and remedy of osteoporosis” (priority 2003, published 2004)
